# Laboratory results published in patent publication US20230146455A1, “TREATMENT OF INFLAMMATORY DISEASES WITH PEPTIDES AND PHARMACEUTICAL COMPOSITIONS” (Yuyu Pharma, Inc., priority 2020, published 2023).
# Values joined by “and” are separate entries in the source; they are usually repeats but may differ in a detail not shown here. Equal values may be shown once. Where a SMILES comes first, the peptide text is derived from it. [ ]: non-standard residue; d: D form. Hyp = O=C(O)[C@@H]1C[C@@H](O)CN1
# Tested on: human PBMCs
# Assay: PBMC cell counts (total, live, viability; trypan blue, Countess) with and without LPS and test articles (Example 9)
# Assay type: cell-based
# In short: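 Human PBMCs were pretreated 2 h with test articles (0.001–100 uM) or 0.5% DMSO vehicle, then given LPS at 5 ug/ml or no LPS, in triplicate. After 24 hr, total and live cells and viability were counted by 1:1 trypan blue staining on an automated counter.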
# [1] = PBMC + LPS(5 ug/ml) + compound 0.001 uM, 24 hr
# [2] = PBMC + LPS(5 ug/ml) + compound 0.01 uM, 24 hr
# [3] = PBMC + LPS(5 ug/ml) + compound 0.1 uM, 24 hr
# [4] = PBMC + LPS(5 ug/ml) + compound 1 uM, 24 hr
# [5] = PBMC + LPS(5 ug/ml) + compound 10 uM, 24 hr
# [6] = PBMC + LPS(5 ug/ml) + compound 100 uM, 24 hr
# [7] = PBMC + LPS(5 ug/ml) + test article 0.001 uM, Mean
# [8] = PBMC + LPS(5 ug/ml) + test article 0.001 uM, single replicates
# [9] = PBMC + LPS(5 ug/ml) + test article 0.01 uM, Mean
# [10] = PBMC + LPS(5 ug/ml) + test article 0.01 uM, single replicates
# [11] = PBMC + LPS(5 ug/ml) + test article 0.1 uM, Mean
# [12] = PBMC + LPS(5 ug/ml) + test article 0.1 uM, single replicates
# [13] = PBMC + LPS(5 ug/ml) + test article 1 uM, Mean
# [14] = PBMC + LPS(5 ug/ml) + test article 1 uM, single replicates
# [15] = PBMC + LPS(5 ug/ml) + test article 10 uM, Mean
# [16] = PBMC + LPS(5 ug/ml) + test article 10 uM, single replicates
# [17] = PBMC + LPS(5 ug/ml) + test article 100 uM, Mean
# [18] = PBMC + LPS(5 ug/ml) + test article 100 uM, single replicates
# [19] = PBMC + LPS(5 ug/ml), test article 0.001 uM, Mean
# [20] = PBMC + LPS(5 ug/ml), test article 0.001 uM, single replicates
# [21] = PBMC + LPS(5 ug/ml), test article 0.01 uM, Mean
# [22] = PBMC + LPS(5 ug/ml), test article 0.01 uM, single replicates
# [23] = PBMC + LPS(5 ug/ml), test article 0.1 uM, Mean
# [24] = PBMC + LPS(5 ug/ml), test article 0.1 uM, single replicates
# [25] = PBMC + LPS(5 ug/ml), test article 1 uM, Mean
# [26] = PBMC + LPS(5 ug/ml), test article 1 uM, single replicates
# [27] = PBMC + LPS(5 ug/ml), test article 10 uM, Mean
# [28] = PBMC + LPS(5 ug/ml), test article 10 uM, single replicates
# [29] = PBMC + LPS(5 ug/ml), test article 100 uM, Mean
# [30] = PBMC + LPS(5 ug/ml), test article 100 uM, single replicates
smiles,measurement,setting,value
CC(C)C[C@H](NC(=O)CNC(=O)[C@H](CC(C)C)NC(=O)[C@H](CCC(N)=O)NC(=O)CNC(=O)[C@@H]1C[C@@H](O)CN1)C(=O)N[C@@H](C)C(=O)NCC(=O)N1CCC[C@H]1C(=O)N[C@@H](CCCCN)C(=O)O [YDE-011] (H-[Hyp]GQLGLAGPK-OH),Live cell,[1],5.4 ± 0.4 10^5/ml
same,Total cell,[1],6.3 ± 0.2 10^5/ml
same,Live cell,[2],5.9 ± 0.4 10^5/ml
same,Total cell,[2],7.3 ± 0.4 10^5/ml
same,Live cell,[3],5.8 ± 0.5 10^5/ml
same,Total cell,[3],7.1 ± 0.7 10^5/ml
same,Live cell,[4],5.0 ± 0.2 10^5/ml
same,Total cell,[4],6.4 ± 0.3 10^5/ml
same,Live cell,[5],5.3 ± 0.3 10^5/ml
same,Total cell,[5],6.0 ± 0.4 10^5/ml
same,Live cell,[6],6.1 ± 0.0 10^5/ml
same,Total cell,[6],8.2 ± 0.4 10^5/ml
same,Live cell,[7],5.4 10^5/ml
same,Live cell (10^5/ml),[7],5.4 10^5/ml
same,"Live cell, Mean",[7],5.4 10^5/ml
same,Live cell,"PBMC + LPS(5 ug/ml) + test article 0.001 uM, individual replicates",4.5 10^5/ml and 5.8 10^5/ml (2×)
same,Live cell,"PBMC + LPS(5 ug/ml) + test article 0.001 uM, individual replicates (1st, 2nd, 3rd)",4.5 10^5/ml and 5.8 10^5/ml (2×)
same,Live cell,[8],4.5 10^5/ml and 5.8 10^5/ml (2×)
same,Live cell (10^5/ml),[8],4.5 10^5/ml and 5.8 10^5/ml (2×)
same,Live cell,"PBMC + LPS(5 ug/ml) + test article 0.001 uM, single replicates (1st, 2nd, 3rd)",4.5 10^5/ml and 5.8 10^5/ml (2×)
same,Live cell,[9],5.9 10^5/ml
same,Live cell (10^5/ml),[9],5.9 10^5/ml
same,"Live cell, Mean",[9],5.9 10^5/ml
same,Live cell,"PBMC + LPS(5 ug/ml) + test article 0.01 uM, individual replicates",6.2 10^5/ml and 5.1 10^5/ml and 6.3 10^5/ml
same,Live cell,"PBMC + LPS(5 ug/ml) + test article 0.01 uM, individual replicates (1st, 2nd, 3rd)",6.2 10^5/ml and 5.1 10^5/ml and 6.3 10^5/ml
same,Live cell,[10],6.3 10^5/ml and 6.2 10^5/ml and 5.1 10^5/ml
same,Live cell (10^5/ml),[10],6.3 10^5/ml and 6.2 10^5/ml and 5.1 10^5/ml
same,Live cell,"PBMC + LPS(5 ug/ml) + test article 0.01 uM, single replicates (1st, 2nd, 3rd)",6.2 10^5/ml and 5.1 10^5/ml and 6.3 10^5/ml
same,Live cell,[11],5.8 10^5/ml
same,Live cell (10^5/ml),[11],5.8 10^5/ml
same,"Live cell, Mean",[11],5.8 10^5/ml
same,Live cell,"PBMC + LPS(5 ug/ml) + test article 0.1 uM, individual replicates",6.6 10^5/ml and 5.0 10^5/ml and 5.7 10^5/ml
same,Live cell,"PBMC + LPS(5 ug/ml) + test article 0.1 uM, individual replicates (1st, 2nd, 3rd)",6.6 10^5/ml and 5.0 10^5/ml and 5.7 10^5/ml
same,Live cell,[12],6.6 10^5/ml and 5.0 10^5/ml and 5.7 10^5/ml
same,Live cell (10^5/ml),[12],6.6 10^5/ml and 5.0 10^5/ml and 5.7 10^5/ml
same,Live cell,"PBMC + LPS(5 ug/ml) + test article 0.1 uM, single replicates (1st, 2nd, 3rd)",6.6 10^5/ml and 5.0 10^5/ml and 5.7 10^5/ml
same,Live cell,[13],5.0 10^5/ml
same,Live cell (10^5/ml),[13],5.0 10^5/ml
same,"Live cell, Mean",[13],5.0 10^5/ml
same,Live cell,"PBMC + LPS(5 ug/ml) + test article 1 uM, individual replicates",5.5 10^5/ml and 4.8 10^5/ml (2×)
same,Live cell,"PBMC + LPS(5 ug/ml) + test article 1 uM, individual replicates (1st, 2nd, 3rd)",5.5 10^5/ml and 4.8 10^5/ml (2×)
same,Live cell,[14],5.5 10^5/ml and 4.8 10^5/ml (2×)
same,Live cell (10^5/ml),[14],5.5 10^5/ml and 4.8 10^5/ml (2×)
same,Live cell,"PBMC + LPS(5 ug/ml) + test article 1 uM, single replicates (1st, 2nd, 3rd)",5.5 10^5/ml and 4.8 10^5/ml (2×)
same,Live cell,[15],5.3 10^5/ml
same,Live cell (10^5/ml),[15],5.3 10^5/ml
same,"Live cell, Mean",[15],5.3 10^5/ml
same,Live cell,"PBMC + LPS(5 ug/ml) + test article 10 uM, individual replicates",5.4 10^5/ml and 5.8 10^5/ml and 4.7 10^5/ml
same,Live cell,"PBMC + LPS(5 ug/ml) + test article 10 uM, individual replicates (1st, 2nd, 3rd)",5.4 10^5/ml and 5.8 10^5/ml and 4.7 10^5/ml
same,Live cell,[16],5.4 10^5/ml and 5.8 10^5/ml and 4.7 10^5/ml
same,Live cell (10^5/ml),[16],5.4 10^5/ml and 5.8 10^5/ml and 4.7 10^5/ml
same,Live cell,"PBMC + LPS(5 ug/ml) + test article 10 uM, single replicates (1st, 2nd, 3rd)",5.4 10^5/ml and 5.8 10^5/ml and 4.7 10^5/ml
same,Live cell,[17],6.1 10^5/ml
same,Live cell (10^5/ml),[17],6.1 10^5/ml
same,"Live cell, Mean",[17],6.1 10^5/ml
same,Live cell,"PBMC + LPS(5 ug/ml) + test article 100 uM, individual replicates",6.1 10^5/ml (2×) and 6.0 10^5/ml
same,Live cell,"PBMC + LPS(5 ug/ml) + test article 100 uM, individual replicates (1st, 2nd, 3rd)",6.1 10^5/ml (2×) and 6.0 10^5/ml
same,Live cell,[18],6.1 10^5/ml (2×) and 6.0 10^5/ml
same,Live cell (10^5/ml),[18],6.1 10^5/ml (2×) and 6.0 10^5/ml
same,Live cell,"PBMC + LPS(5 ug/ml) + test article 100 uM, single replicates (1st, 2nd, 3rd)",6.1 10^5/ml (2×) and 6.0 10^5/ml
same,Live cell,"PBMC + LPS(5 ug/ml), 0.001 uM, Mean",5.4 10^5/ml
same,Live cell,"PBMC + LPS(5 ug/ml), 0.001 uM, single replicates",4.5 10^5/ml and 5.8 10^5/ml (2×)
same,Live cell,"PBMC + LPS(5 ug/ml), 0.01 uM, Mean",5.9 10^5/ml
same,Live cell,"PBMC + LPS(5 ug/ml), 0.01 uM, single replicates",6.2 10^5/ml and 5.1 10^5/ml and 6.3 10^5/ml
same,Live cell,"PBMC + LPS(5 ug/ml), 0.1 uM, Mean",5.8 10^5/ml
same,Live cell,"PBMC + LPS(5 ug/ml), 0.1 uM, single replicates",6.6 10^5/ml and 5.0 10^5/ml and 5.7 10^5/ml
same,Live cell,"PBMC + LPS(5 ug/ml), 1 uM, Mean",5.0 10^5/ml
same,Live cell,"PBMC + LPS(5 ug/ml), 1 uM, single replicates",5.5 10^5/ml and 4.8 10^5/ml (2×)
same,Live cell,"PBMC + LPS(5 ug/ml), 10 uM, Mean",5.3 10^5/ml
same,Live cell,"PBMC + LPS(5 ug/ml), 10 uM, single replicates",5.4 10^5/ml and 5.8 10^5/ml and 4.7 10^5/ml
same,Live cell,"PBMC + LPS(5 ug/ml), 100 uM, Mean",6.1 10^5/ml
same,Live cell,"PBMC + LPS(5 ug/ml), 100 uM, single replicates",6.1 10^5/ml (2×) and 6.0 10^5/ml
same,Live cell,[19],5.4 10^5/ml
same,Total cell count,[19],6.3 10^5/ml
same,Live cell,[20],4.5 10^5/ml and 5.8 10^5/ml (2×)
same,Total cell count,[20],5.9 10^5/ml and 6.3 10^5/ml and 6.6 10^5/ml
same,Viability,[20],75.0% and 92.0% and 88.0%
same,Live cell,[21],5.9 10^5/ml
same,Total cell count,[21],7.3 10^5/ml
same,Live cell,[22],6.3 10^5/ml and 6.2 10^5/ml and 5.1 10^5/ml
same,Total cell count,[22],7.6 10^5/ml and 7.8 10^5/ml and 6.4 10^5/ml
same,Viability,[22],79.0%
same,Live cell,[23],5.8 10^5/ml
same,Total cell count,[23],7.1 10^5/ml
same,Live cell,[24],6.6 10^5/ml and 5.0 10^5/ml and 5.7 10^5/ml
same,Total cell count,[24],7.8 10^5/ml and 5.7 10^5/ml and 7.7 10^5/ml
same,Viability,[24],85.0% and 87.0% and 74.0%
same,Live cell,[25],5.0 10^5/ml
same,Total cell count,[25],6.4 10^5/ml
same,Live cell,[26],5.5 10^5/ml and 4.8 10^5/ml
same,Total cell count,[26],6.2 10^5/ml and 7.0 10^5/ml and 5.9 10^5/ml
same,Viability,[26],89.0% and 69.0% and 81.0%
same,Live cell,[27],5.3 10^5/ml
same,Total cell count,[27],6.0 10^5/ml
same,Live cell,[28],5.4 10^5/ml and 5.8 10^5/ml and 4.7 10^5/ml
same,Total cell count,[28],5.9 10^5/ml and 6.7 10^5/ml and 5.4 10^5/ml
same,Viability,[28],91.0% and 86.0% and 88.0%
same,Live cell,[29],6.1 10^5/ml
same,Total cell count,[29],8.2 10^5/ml
same,Live cell,[30],6.1 10^5/ml (2×) and 6.0 10^5/ml
same,Total cell count,[30],7.6 10^5/ml and 8.1 10^5/ml and 9.0 10^5/ml
same,Viability,[30],81.0% and 75.0% and 67.0%
same,which treatments consistently affected the total and live number of PBMCs or the percent viability (in words),"up to 100 μM, 24-hour treatment",none of
